Test results from ChEMBL document CHEMBL1201861, “Genomics of Drug Sensitity in Cancer screening data, Wellcome Trust Sanger Institute”.

Assays:
Test in all cases: cells
Format in all cases: functional, cell-based, Homo sapiens
BC-3 = details: Homo sapiens, BC-3;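 further: cell viability assay measuring growth inhibition of human BC-3 cells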
Description: SANGER: Inhibition of human BC-3 cell growth in a cell viability assay.

NCI-H889 = details: Homo sapiens, NCI-H889;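 further: cell growth inhibition of the cell line, read out with a viability assay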
Description: SANGER: Inhibition of human NCI-H889 cell growth in a cell viability assay.

NCI-H2196 = details: Homo sapiens, NCI-H2196;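 further: cell viability assay used as the readout of growth inhibition in NCI-H2196 cells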
Description: SANGER: Inhibition of human NCI-H2196 cell growth in a cell viability assay.

NB14 = details: Homo sapiens, NB14;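 further: growth inhibition of NB14 cells measured with a cell viability assay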
Description: SANGER: Inhibition of human NB14 cell growth in a cell viability assay.

SIG-M5 = details: Homo sapiens, SIG-M5;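 further: cell viability assay read-out, measuring how strongly growth of cultured human SIG-M5 cells is inhibited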
Description: SANGER: Inhibition of human SIG-M5 cell growth in a cell viability assay.

NB7 = details: Homo sapiens, NB7;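 further: growth inhibition of NB7 cells, read out with a cell viability assay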
Description: SANGER: Inhibition of human NB7 cell growth in a cell viability assay.

LU-165 = details: Homo sapiens, LU-165
Description: SANGER: Inhibition of human LU-165 cell growth in a cell viability assay.

KP-N-YN = details: Homo sapiens, KP-N-YN;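 further: growth inhibition of KP-N-YN cells, read out with a cell viability assay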
Description: SANGER: Inhibition of human KP-N-YN cell growth in a cell viability assay.

NCI-H2081 = details: Homo sapiens, NCI-H2081;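 further: growth inhibition of human NCI-H2081 cells, read out with a cell viability assay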
Description: SANGER: Inhibition of human NCI-H2081 cell growth in a cell viability assay.

NB1 = details: Homo sapiens, NB1
Description: SANGER: Inhibition of human NB1 cell growth in a cell viability assay.

SNU-16 = details: Homo sapiens, SNU-16;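 further: growth inhibition of human SNU-16 cells, determined with a cell viability readout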
Description: SANGER: Inhibition of human NCI-SNU-16 cell growth in a cell viability assay.

KMS-12-PE = details: Homo sapiens, KMS-12-PE;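 further: growth inhibition of human KMS-12-PE cells, measured with a cell viability assay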
Description: SANGER: Inhibition of human KMS-12-PE cell growth in a cell viability assay.

EHEB = details: Homo sapiens, EHEB;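 further: growth inhibition of human EHEB cells, read out with a cell viability assay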
Description: SANGER: Inhibition of human EHEB cell growth in a cell viability assay.

HLE = details: Homo sapiens, HLE;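 further: growth inhibition of human HLE cells, read out by a cell viability assay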
Description: SANGER: Inhibition of human HLE cell growth in a cell viability assay.

SAOS-2 = details: Homo sapiens, SAOS-2;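 further: growth inhibition of human Saos-2 cells determined by a cell viability assay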
Description: SANGER: Inhibition of human Saos-2 cell growth in a cell viability assay.

SNU-449 = details: Homo sapiens, SNU-449
Description: SANGER: Inhibition of human SNU-449 cell growth in a cell viability assay.

CAMA-1 = details: Homo sapiens, CAMA-1;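 further: growth inhibition of CAMA-1 cells, read out with a cell viability assay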
Description: SANGER: Inhibition of human CAMA-1 cell growth in a cell viability assay.

NCI-H2087 = details: Homo sapiens, NCI-H2087;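 further: growth inhibition determined with a cell viability readout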
Description: SANGER: Inhibition of human NCI-H2087 cell growth in a cell viability assay.

HGC-27 = details: Homo sapiens, HGC-27;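 further: growth inhibition of human HGC-27 cells, read out in a cell viability assay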
Description: SANGER: Inhibition of human HGC-27 cell growth in a cell viability assay.

CAL-27 = details: Homo sapiens, CAL-27;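 further: Viability-based readout, IC50 reflecting inhibition of CAL-27 cell growth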
Description: SANGER: Inhibition of human CAL-27 cell growth in a cell viability assay.

P12-Ichikawa = details: Homo sapiens, P12-Ichikawa
HCT-15 = details: Homo sapiens, HCT-15;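 further: cell viability readout, IC50 reflecting suppression of HCT-15 cell growth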
Description: SANGER: Inhibition of human HCT-15 cell growth in a cell viability assay.

MHH-ES-1 = details: Homo sapiens, MHH-ES-1;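 further: cell growth inhibition measured by a cell viability assay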
Description: SANGER: Inhibition of human MHH-ES-1 cell growth in a cell viability assay.

NCI-H650 = details: Homo sapiens, NCI-H650;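 further: growth inhibition of NCI-H650 cells, read out by a viability assay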
Description: SANGER: Inhibition of human NCI-H650 cell growth in a cell viability assay.

LN-405 = details: Homo sapiens, LN-405
Description: SANGER: Inhibition of human LN-405 cell growth in a cell viability assay.

SK-MEL-24 = details: Homo sapiens, SK-MEL-24;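 further: growth inhibition read out by a cell viability assay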
Description: SANGER: Inhibition of human SK-MEL-24 cell growth in a cell viability assay.

RO82-W-1 = details: Homo sapiens, RO82-W-1;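 further: growth inhibition of human RO82-W-1 cells, measured with a cell viability assay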
Description: SANGER: Inhibition of human RO82-W-1 cell growth in a cell viability assay.

MKN-28 = details: Homo sapiens, MKN-28;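 further: cell viability assay read-out, IC50 reflects suppression of growth of human MKN-28 cells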
Description: SANGER: Inhibition of human MKN28 cell growth in a cell viability assay.

HPAF-II = details: Homo sapiens, HPAF-II;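 further: growth inhibition of HPAF-II cells, read out with a cell viability assay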
Description: SANGER: Inhibition of human HPAF-II cell growth in a cell viability assay.

Capan-2 = details: Homo sapiens, Capan-2;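 further: Capan-2 cell growth inhibition, read out with a viability assay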
Description: SANGER: Inhibition of human Capan-2 cell growth in a cell viability assay.

NCI-H2170 = details: Homo sapiens, NCI-H2170;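 further: cell viability assay measuring growth inhibition of human NCI-H2170 cancer cells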
Description: SANGER: Inhibition of human NCI-H2170 cell growth in a cell viability assay.

HN = details: Homo sapiens, HN
Description: SANGER: Inhibition of human HN cell growth in a cell viability assay.

HCC1954 = details: Homo sapiens, HCC1954;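 further: growth inhibition of human HCC1954 cells, read out with a cell viability assay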
Description: SANGER: Inhibition of human HCC1954 cell growth in a cell viability assay.

NCI-H1703 = details: Homo sapiens, NCI-H1703;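 further: growth inhibition of NCI-H1703 cells, read out via a cell viability assay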
Description: SANGER: Inhibition of human NCI-H1703 cell growth in a cell viability assay.

NCI-H1793 = details: Homo sapiens, NCI-H1793;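 further: cell growth inhibition, read out by a cell viability assay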
Description: SANGER: Inhibition of human NCI-H1793 cell growth in a cell viability assay.

SJRH30 = details: Homo sapiens, SJRH30;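 further: growth inhibition of human SJRH30 cells, read out with a cell viability assay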
Description: SANGER: Inhibition of human SJRH30 cell growth in a cell viability assay.

SAS = details: Homo sapiens, SAS;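 further: growth inhibition of SAS cells, read out with a cell viability assay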
Description: SANGER: Inhibition of human SAS cell growth in a cell viability assay.

SW1710 = details: Homo sapiens, SW1710;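 further: growth inhibition of SW1710 cells, determined with a cell viability assay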
Description: SANGER: Inhibition of human SW1710 cell growth in a cell viability assay.

HOS = details: Homo sapiens, HOS;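 further: growth inhibition of human HOS cells, read out with a cell viability assay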
Description: SANGER: Inhibition of human HOS cell growth in a cell viability assay.

LU-99A = details: Homo sapiens, LU-99A;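 further: growth inhibition of LU-99A cells, read out with a cell viability assay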
Description: SANGER: Inhibition of human LU-99A cell growth in a cell viability assay.

PC-3 = details: Homo sapiens, PC-3;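 further: cell viability assay measuring growth inhibition of PC-3 cells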
Description: SANGER: Inhibition of human PC-3 cell growth in a cell viability assay.

CHL-1 = details: Homo sapiens, CHL-1;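 further: cell growth inhibition, read out with a cell viability assay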
Description: SANGER: Inhibition of human CHL-1 cell growth in a cell viability assay.

KYSE-410 = details: Homo sapiens, KYSE-410;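 further: growth inhibition of KYSE-410 cells, measured through a cell viability readout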
Description: SANGER: Inhibition of human KYSE-410 cell growth in a cell viability assay.

T47D = details: Homo sapiens, T47D;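 further: growth inhibition of human T47D cells, measured with a cell viability assay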
Description: SANGER: Inhibition of human T47D cell growth in a cell viability assay.

Hs-578T = details: Homo sapiens, Hs-578T
Description: SANGER: Inhibition of human Hs-578-T cell growth in a cell viability assay.

GP5d = details: Homo sapiens, GP5d;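 further: growth inhibition of human GP5d cells, read out with a cell viability assay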
Description: SANGER: Inhibition of human GP5d cell growth in a cell viability assay.

Measured: IC50

COc1cc2ncn(-c3cc(OCc4ccccc4S(C)(=O)=O)c(C#N)s3)c2cc1OC [GSK-319347A]
> 5 µM: BC-3 | NCI-H889 | NCI-H2196 | NB14 | SIG-M5 | NB7 | LU-165 | KP-N-YN | NCI-H2081 | NB1 | SNU-16 | KMS-12-PE

CC[C@H](CO)Nc1nc(NCc2ccccc2)c2ncn(C(C)C)c2n1 [SELICICLIB]
12.3 µM: NB1
> 16 µM: BC-3 | NCI-H889 | NCI-H2196 | NB14 | SIG-M5 | NB7 | EHEB | LU-165 | NCI-H2081 | SNU-16 | KMS-12-PE

CCN(CC)CCNC(=O)c1c(C)[nH]c(/C=C2\C(=O)Nc3ccc(F)cc32)c1C [SUNITINIB]
1.37 µM: SIG-M5
1.46 µM: SNU-16
1.96 µM: NB1
> 8 µM: BC-3 | NCI-H889 | NCI-H2196 | NB14 | NB7 | EHEB | LU-165 | NCI-H2081 | KMS-12-PE

Cc1ccc(-c2c(C(=O)CCl)n(CCCO)c3ncnc(N)c23)cc1
> 4 µM: BC-3 | NCI-H889 | NCI-H2196 | NB14 | SIG-M5 | NB7 | EHEB | LU-165 | NCI-H2081 | NB1 | SNU-16 | KMS-12-PE

OCCCNc1cc(-c2ccnc(Nc3cccc(Cl)c3)n2)ccn1
0.112 µM: NCI-H2196
0.0766 µM: BC-3
0.191 µM: EHEB
> 0.256 µM: NCI-H889 | NB14 | NB7 | LU-165 | NCI-H2081 | KMS-12-PE
0.0843 µM: NB1
0.136 µM: SNU-16
0.0299 µM: SIG-M5

N[C@@H](CSC(c1ccccc1)(c1ccccc1)c1ccccc1)C(=O)O [S-TRITYL-L-CYSTEINE]
2.94 µM: NB1
2.77 µM: SIG-M5
2.19 µM: BC-3
> 5.12 µM: NCI-H889 | NCI-H2196 | NB14 | NB7 | EHEB | LU-165 | NCI-H2081 | SNU-16 | KMS-12-PE

COc1cc(N2CCN(C)CC2)ccc1Nc1ncc2c(n1)N(C)c1ccccc1C(=O)N2C
> 8 µM: BC-3 | NCI-H889 | NCI-H2196 | NB14 | NB7 | LU-165 | KP-N-YN | NCI-H2081 | NB1 | SNU-16 | KMS-12-PE
5.36 µM: SIG-M5

C#Cc1cccc(Nc2ncnc3cc(OCCOC)c(OCCOC)cc23)c1 [ERLOTINIB]
> 2 µM: BC-3 | NCI-H2196 | NB14 | SIG-M5 | NB7 | EHEB | LU-165 | NCI-H2081 | SNU-16 | KMS-12-PE

N#Cc1c(O)c2c(-c3ccc(-c4ccccc4O)cc3)csc2[nH]c1=O
0.214 µM: NCI-H2087
0.489 µM: P12-Ichikawa
0.248 µM: NCI-H2196
0.419 µM: KMS-12-PE
0.0633 µM: EHEB
> 1.02 µM: HLE | SAOS-2 | SNU-449 | CAMA-1 | HGC-27 | CAL-27 | BC-3 | NCI-H889 | HCT-15 | MHH-ES-1 | NCI-H650 | LN-405 | SK-MEL-24 | RO82-W-1 | MKN-28 | HPAF-II | Capan-2 | NCI-H2170 | LU-165 | HN | HCC1954 | NCI-H1703 | NCI-H2081 | NCI-H1793 | NB1 | SAS | SNU-16 | SW1710 | HOS | LU-99A | PC-3 | CHL-1 | KYSE-410 | T47D | Hs-578T | GP5d
0.495 µM: SJRH30
0.00786 µM: SIG-M5

Nc1ccn([C@@H]2O[C@H](CO)[C@@H](O)C2(F)F)c(=O)n1 [GEMCITABINE]
> 1.02 µM: SAOS-2 | NCI-H889 | NCI-H2196 | LN-405 | SK-MEL-24 | RO82-W-1 | MKN-28 | Capan-2 | LU-165 | HCC1954 | SNU-16 | LU-99A | PC-3 | T47D | KMS-12-PE | Hs-578T
0.0822 µM: HCT-15
0.0352 µM: CAL-27
0.0318 µM: NCI-H1703
0.0096 µM: HGC-27
0.221 µM: BC-3
0.0847 µM: P12-Ichikawa
0.106 µM: SJRH30
0.396 µM: CAMA-1
< 0.004 µM: MHH-ES-1 | SIG-M5 | SW1710 | HOS | CHL-1
0.488 µM: NB1
0.0559 µM: KYSE-410
0.0287 µM: GP5d
0.428 µM: HPAF-II
0.012 µM: NCI-H2170
0.311 µM: NCI-H2081
0.0138 µM: SNU-449
0.003 µM: HLE
0.0205 µM: SAS
0.0541 µM: HN
0.566 µM: NCI-H650
0.224 µM: NCI-H1793
0.00214 µM: NCI-H2087
0.227 µM: EHEB

C=C(c1ccc(C(=O)O)cc1)c1cc2c(cc1C)C(C)(C)CCC2(C)C [BEXAROTENE]
< 0.0312 µM: SIG-M5
> 8 µM: HLE | SAOS-2 | SNU-449 | CAMA-1 | NCI-H2087 | HGC-27 | CAL-27 | BC-3 | NCI-H889 | P12-Ichikawa | NCI-H2196 | HCT-15 | MHH-ES-1 | NCI-H650 | LN-405 | SK-MEL-24 | RO82-W-1 | MKN-28 | EHEB | HPAF-II | Capan-2 | NCI-H2170 | LU-165 | HN | HCC1954 | NCI-H1703 | NCI-H2081 | NCI-H1793 | NB1 | SJRH30 | SAS | SNU-16 | SW1710 | HOS | LU-99A | PC-3 | CHL-1 | KYSE-410 | T47D | KMS-12-PE | Hs-578T | GP5d
